# Biological target: BRD4 (Homo sapiens, UniProt O60885)
# Assay: Time resolved fluorescence resonance energy transfer (TR-FRET) binding assay, bromodomain BRD4
# Conditions: one of the FRET assays described; read-out: FRET BRD4 IC50
row,Compound,IC50
1,"COc1cc2c(c(C)n1)c1ncc(-c3c(C)nnn3C)cc1n2[C@H](c1ccccc1)C1CCOCC1 [Example 283, 5-(Dimethyl-1H-1,2,3-triazol-5-yl)-11-methoxy-13-methyl-8-[(S)-oxan-4-yl(phenyl)methyl]-3,8,12-triazatricyclo[7.4.0.0^2,^7]trideca-1(9),2(7),3,5,10,12-hexaene]",< 1 nM
2,"Cc1noc(C)c1-c1cnc2c3cc(C(C)(C)O)cnc3n([C@H](c3ccccc3)C3CCOCC3)c2c1 [Example 351, 2-[5-(Dimethyl-1,2-oxazol-4-yl)-8-[(S)-oxan-4-yl(phenyl)methyl]-3,8,10-triazatricyclo[7.4.0.0^2,^7]trideca-1(13),2(7),3,5,9,11-hexaen-12-yl]propan-2-ol]",< 1500 nM
3,"Cc1nnn(C)c1-c1cnc2c3ccnc(N4CCOCC4)c3n([C@H](c3ccccc3)C3CCOCC3)c2c1 [Example 7, 5-(Dimethyl-1H-1,2,3-triazol-5-yl)-10-(morpholin-4-yl)-8-[(S)-oxan-4-yl(phenyl)methyl]-3,8,11-triazatricyclo[7.4.0.0^2,^7]trideca-1(13),2(7),3,5,9,11-hexaene]",< 10 nM
4,"[2H]C([2H])([2H])c1nnn(C)c1-c1cnc2c3ccc(-c4ccc(C(C)(C)O)s4)nc3n([C@H](c3ccccc3)C3CCOCC3)c2c1 [Example 176, 2-(5-{5-[4-(^2H3)Methyl-1-methyl-1H-1,2,3-triazol-5-yl]-8-[(S)-oxan-4-yl(phenyl)methyl]-3,8,10-triazatricyclo[7.4.0.0^2,^7]trideca-1(9),2(7),3,5,10,12-hexaen-11-yl}thiophen-2-yl)propan-2-ol]",< 10 nM
5,"[2H]C([2H])([2H])c1nnn(C)c1-c1cnc2c3c(OC)ncc(S(C)(=O)=O)c3n([C@@H](c3ccccc3)C3CCC(F)(F)CC3)c2c1 [Example 82, 8-[(R)-(4,4-Difluorocyclohexyl)(phenyl)methyl]-10-methanesulfonyl-13-methoxy-5-[4-(^2H3)methyl-1-methyl-1H-1,2,3-triazol-5-yl]-3,8,12-triazatricyclo[7.4.0.0^2,^7]trideca-1(13),2(7),3,5,9,11-hexaene]",< 1500 nM
6,"COc1ncc(CO)c2c1c1ncc(-c3c(C)nnn3C)cc1n2[C@H](c1ccccc1)C1CCOCC1 [Example 136, [5-(Dimethyl-1H-1,2,3-triazol-5-yl)-13-methoxy-8-[(S)-oxan-4-yl(phenyl)methyl]-3,8,12-triazatricyclo[7.4.0.0^2,^7]trideca-1(9),2,4,6,10,12-hexaen-10-yl]methanol]",< 10 nM
7,"[2H]C([2H])([2H])c1nnn(C)c1-c1cnc2c3cc(Cl)cnc3n([C@H](c3ccccc3)C3CCOCC3)c2c1 [Example 347, 12-Chloro-5-[4-(^2H3)methyl-1-methyl-1H-1,2,3-triazol-5-yl]-8-[(S)-oxan-4-yl(phenyl)methyl]-3,8,10-triazatricyclo[7.4.0.0^2,^7]trideca-1(13),2(7),3,5,9,11-hexaene]",< 1500 nM
8,"Cc1noc(C)c1-c1cnc2c3c(NS(=O)(=O)C(C)C)ncc(S(C)(=O)=O)c3n([C@H](c3ccccc3)C3CCOCC3)c2c1 [Example 100, N-[5-(Dimethyl-1,2-oxazol-4-yl)-10-methanesulfonyl-8-[(S)-oxan-4-yl(phenyl)methyl]-3,8,12-triazatricyclo[7.4.0.0^2,^7]trideca-1(13),2(7),3,5,9,11-hexaen-13-yl]propane-2-sulfonamide]",< 10 nM
9,"Cc1nnn(C)c1-c1cnc2c3ccc(-c4c(C)nnn4C)nc3n([C@H](c3ccccc3F)C3CCOCC3)c2c1 [Example 227, 5,11-Bis(dimethyl-1H-1,2,3-triazol-5-yl)-8-[(S)-(2-fluorophenyl)(oxan-4-yl)methyl]-3,8,10-triazatricyclo[7.4.0.0^2,^7]trideca-1(13),2(7),3,5,9,11-hexaene]",< 1 nM
10,"COc1ncc(S(C)(=O)=O)c2c1c1ncc(-c3c(C)noc3C)cc1n2C(c1ccccc1)C1CCC(F)(F)CC1 (single isomer, unassigned) [Example 89, 8-[(4,4-Difluorocyclohexyl)(phenyl)methyl]-5-(dimethyl-1,2-oxazol-4-yl)-10-methanesulfonyl-13-methoxy-3,8,12-triazatricyclo[7.4.0.0^2,^7]trideca-1(13),2(7),3,5,9,11-hexaene]",< 1500 nM
11,"Cc1nnn(C)c1-c1cnc2c3cnc(N4CCN(C5CC5)CC4)nc3n([C@H](c3ccccc3)C3CCOCC3)c2c1 [Example 157, 11-(4-Cyclopropylpiperazin-1-yl)-5-(dimethyl-1H-1,2,3-triazol-5-yl)-8-[(S)-oxan-4-yl(phenyl)methyl]-3,8,10,12-tetraazatricyclo[7.4.0.0^2,^7]trideca-1(9),2(7),3,5,10,12-hexaene]",< 10 nM
12,"2-{8-[(3-Fluoropyridin-2-yl)(oxan-4-yl)methyl]-11-[4-(^2H3)methyl-1-methyl-1H-1,2,3-triazol-5-yl]-3,8,10-triazatricyclo[7.4.0.0^2,^7]trideca-1(9),2,4,6,10,12-hexaen-5-yl}propan-2-ol [Example 362]",< 10 nM
13,"COc1ncc(S(C)(=O)=O)c2c1c1ncc(-c3c(C)noc3C)cc1n2[C@H](c1ccccc1)C1CCOCC1 [Example 45, 5-(Dimethyl-1,2-oxazol-4-yl)-10-methanesulfonyl-13-methoxy-8-[(S)-oxan-4-yl(phenyl)methyl]-3,8,12-triazatricyclo[7.4.0.0^2,^7]trideca-1(13),2(7),3,5,9,11-hexaene]",< 1 nM
14,"[2H]C([2H])([2H])c1nnn(C)c1-c1cnc2c3ccc(NCCc4nnn[nH]4)nc3n([C@H](c3ccccc3)C3CCOCC3)c2c1 [Example 295, 5-[4-(^2H3)Methyl-1-methyl-1H-1,2,3-triazol-5-yl]-8-[(S)-oxan-4-yl(phenyl)methyl]-N-[2-(1H-1,2,3,4-tetrazol-5-yl)ethyl]-3,8,10-triazatricyclo[7.4.0.0^2,^7]trideca-1(9),2(7),3,5,10,12-hexaen-11-amine]",< 1 nM
15,"Cc1nnn(C)c1-c1cnc2c3ccc(S(=O)(=O)N4CCOCC4)nc3n([C@H](c3ccccc3)C3CCOCC3)c2c1 [Example 197, 5-(Dimethyl-1H-1,2,3-triazol-5-yl)-11-(morpholine-4-sulfonyl)-8-[(S)-oxan-4-yl(phenyl)methyl]-3,8,10-triazatricyclo[7.4.0.0^2,^7]trideca-1(9),2(7),3,5,10,12-hexaene]",< 10 nM
16,"[2H]C([2H])([2H])c1nnn(C)c1-c1cnc2c3c(OC(C)C)ncc(S(C)(=O)=O)c3n([C@H](c3ccc(F)cc3)C3CCOCC3)c2c1 [Example 79, 8-[(S)-(4-Fluorophenyl)(oxan-4-yl)methyl]-10-methanesulfonyl-5-[4-(^2H3)methyl-1-methyl-1H-1,2,3-triazol-5-yl]-13-(propan-2-yloxy)-3,8,12-triazatricyclo[7.4.0.0^2,^7]trideca-1(13),2(7),3,5,9,11-hexaene]",< 1 nM
17,"Cc1nnn(C)c1-c1cnc2c3c(S(C)(=O)=O)nccc3n([C@H](c3ccccc3)C3CCOCC3)c2c1 [Example 33, 5-(Dimethyl-1H-1,2,3-triazol-5-yl)-13-methanesulfonyl-8-[(S)-oxan-4-yl(phenyl)methyl]-3,8,12-triazatricyclo[7.4.0.0^2,^7]trideca-1(13),2(7),3,5,9,11-hexaene]",< 1 nM
18,"[2H]C([2H])([2H])c1nnn(C)c1-c1cnc2c3c(OCC(F)(F)F)cncc3n([C@H](c3ccccc3)C3CCOCC3)c2c1 [Example 301, 5-[4-(^2H3)Methyl-1-methyl-1H-1,2,3-triazol-5-yl]-8-[(S)-oxan-4-yl(phenyl)methyl]-13-(2,2,2-trifluoroethoxy)-3,8,11-triazatricyclo[7.4.0.0^2,^7]trideca-1(9),2(7),3,5,10,12-hexaene]",< 1 nM
19,"Cc1nnn(C)c1-c1ccc2c3ncc(C(C)(C)O)cc3n([C@@H](c3ccccc3)C3CCOCC3)c2n1 [Example 378, 2-[11-(Dimethyl-1H-1,2,3-triazol-5-yl)-8-[(R)-oxan-4-yl(phenyl)methyl]-3,8,10-triazatricyclo[7.4.0.0^2,^7]trideca-1(9),2(7),3,5,10,12-hexaen-5-yl]propan-2-ol]",< 10 nM
20,"COc1nnn(C)c1-c1cnc2c3ccc(N4CCS(=O)(=O)CC4)nc3n([C@H](c3ccccc3F)C3CCOCC3)c2c1 [Example 256, 4-{8-[(S)-(2-Fluorophenyl)(oxan-4-yl)methyl]-5-(4-methoxy-1-methyl-1H-1,2,3-triazol-5-yl)-3,8,10-triazatricyclo[7.4.0.0^2,^7]trideca-1(13),2(7),3,5,9,11-hexaen-11-yl}-1λ^6,4-thiomorpholine-1,1-dione]",< 10 nM
21,"[2H]C([2H])([2H])c1nnn(C)c1-c1cnc2c3c(OC)ncc(C(C)(C)O)c3n([C@H](c3ccccc3)C3CCOCC3)c2c1 [Example 138, 2-{13-Methoxy-5-[4-(^2H3)methyl-1-methyl-1H-1,2,3-triazol-5-yl]-8-[(S)-oxan-4-yl(phenyl)methyl]-3,8,12-triazatricyclo[7.4.0.0^2,^7]trideca-1(13),2(7),3,5,9,11-hexaen-10-yl}propan-2-ol]",< 10 nM
22,"Cc1nnn(C)c1-c1cnc2c3ccc(N4CC(C)S(=O)(=O)C(C)C4)nc3n([C@H](c3ccccc3)C3CCOCC3)c2c1 (single isomer, unassigned) [Example 191]",< 1 nM
23,"[2H]C([2H])([2H])c1nnn(C)c1-c1cnc2c3c(OC)nccc3n([C@H](c3ccccc3)C3CCOCC3)c2c1 [Example 128, 13-Methoxy-5-[4-(^2H3)methyl-1-methyl-1H-1,2,3-triazol-5-yl]-8-[(S)-oxan-4-yl(phenyl)methyl]-3,8,12-triazatricyclo[7.4.0.0^2,^7]trideca-1(13),2(7),3,5,9,11-hexaene]",< 10 nM
24,"Cc1nnn(C)c1-c1cnc2c3ccc(S(=O)(=O)N4CCN(C)CC4)nc3n([C@H](c3ccccc3)C3CCOCC3)c2c1 [Example 198, 5-(Dimethyl-1H-1,2,3-triazol-5-yl)-11-[(4-methylpiperazin-1-yl)sulfonyl]-8-[(S)-oxan-4-yl(phenyl)methyl]-3,8,10-triazatricyclo[7.4.0.0^2,^7]trideca-1(9),2(7),3,5,10,12-hexaene]",< 10 nM
